Results taken from patent US10125116B2, “Compounds and methods for treating mammalian gastrointestinal microbial infections” (Brandeis University, priority 2009, dated 2018).
Where two headings read alike, the source gives them in different places.

Assays:
C. parvum [1] = assay: high content imaging C. parvum growth assay; type: cell-based, Cryptosporidium parvum
Source text: FIG. 58 depicts an overview and validation of the high content imaging C. parvum growth assay. A, schematic representation of differential labelling of parasite and host. B, detail of an exemplary micrograph obtained through the screening routine. Numbers indicate object identifies after segmentation analysis. […] For panel D, the ratio of the number of FITC-VVL labelled C. parvum parasites to DAPI labelled HCT-8 host cell nuclei was used to standardize each well and percent C. parvum growth (solid line) was normalized to parasites receiving DMSO alone. […] Paromomycin in addition to reducing parasite number also reduces the average size of the parasite (dashed line). The mean parasite area was measured per well for each treatment in triplicate. The percent area was then calculated by normalizing to the mean area of parasites receiving DMSO alone.
A direct and efficient assay of Cryptosporidium proliferation was also needed. Fluorescent Vicia villosa lectin (VVL) has been used previously to score C. parvum growth by fluorescence microscopy. VVL binds with high specificity to the C. parvum parasite, labelling sporozoites, intracellular stages, the inner oocyst wall, but not the outer oocyst wall. To accommodate the increasing number of compounds entering the SAR pipeline, we adapted the FITC-VVL immunofluorescence assay to a 96-well plate format and developed an automated imaging and analysis pipeline. […] Plates are fixed, permeabilized and stained with FITC-VVL and DAPI to numerate parasites and host cells, respectively. Using a spinning disc microscope, we imaged a […] of each well, providing a robust sample typically consisting of ˜6000 host cells and ˜2000 parasite stages. The instrument is programmed to automatically move from well to well, focus and acquire […] deep image stacks for the entire plate. A series of automated image compression, manipulation, and object-finding algorithms was optimized for the recognition of host cells and parasites using the DAPI and FITC channels. […]

HCT-8 cells = assay: fluorescent HCT-8 host cell growth assay; type: cell-based, human
Source text: The differentiation of selective antiparasitic effects from those that are a secondary consequence of a host cell effect is a critical issue in drug discovery for intracellular parasites. Cytotoxicity assays commonly reflect plasma membrane integrity, and are a crude measure of host cell effects—it is conceivable that more subtle perturbations of host cell metabolism can have an adverse effect on parasite proliferation. Therefore we sought to develop a simple and inexpensive assay of host cell growth. The human ileocecal adenocarcinoma epithelial cell line, HCT-8, which is commonly used to maintain C. parvum infection in tissue culture, was engineered to constitutively express a green fluorescent protein (GFP). Growth of this cell line was monitored daily using a fluorescent plate reader. […] These experiments validate the use of the fluorescent HCT-8 cell growth assay.
HCT-8 cells were transfected with the pmaxGFP plasmid (Amaxa) using Lipofectamine (Invitrogen) following the manufactures instruction. Fluorescent lines were then selected and cloned using FACS. Confluent monolayers of pmaxGFP expressing cells were harvested from T75 flasks and passed through a 40 μm cell strainer. Cells were then seeded at 4000 cells per well in a volume of 200 μL into black, optical quality, thin bottom, 96-well plates (DB Falcon). All test compounds were diluted in DMSO to prepare a 200× working stock for each dilution. Appropriate wells were spiked with 1 μl such that the final concentration of DMSO was 0.5%. The fluorescence was read daily with a SpectraMax M22/M2e (Molecular Devices) plate reader (Ex 485, Em 530) for 6-7 days. The percent inhibition was calculated on a day within the exponential phase of growth.

C. parvum [2] = conditions: read-out: reported EC50 C. parvum growth (previous studies); cited from earlier work
[3] = target: T1, recombinant C. parvum IMPDH (Cryptosporidium parvum, UniProt Q8T6T2); assay: C. parvum IMPDH inhibition (NADH production); type: biochemical
T1 construct: made in house; host or cells: bacteria (guaB strains of E. coli)
T1 sequence (Q8T6T2 1-400): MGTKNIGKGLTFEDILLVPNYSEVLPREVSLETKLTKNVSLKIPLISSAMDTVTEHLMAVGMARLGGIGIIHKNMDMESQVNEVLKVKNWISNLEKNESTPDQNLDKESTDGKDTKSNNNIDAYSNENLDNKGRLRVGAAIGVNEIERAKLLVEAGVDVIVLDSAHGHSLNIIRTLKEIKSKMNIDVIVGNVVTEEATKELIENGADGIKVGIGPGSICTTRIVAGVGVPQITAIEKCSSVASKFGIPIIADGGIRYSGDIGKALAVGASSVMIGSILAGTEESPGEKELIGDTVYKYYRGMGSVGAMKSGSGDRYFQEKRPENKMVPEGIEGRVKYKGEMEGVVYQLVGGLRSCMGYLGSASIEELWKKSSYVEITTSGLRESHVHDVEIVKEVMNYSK
Protocol: Recombinant C. parvum IMPDH was expressed in bacteria and purified as described previously [N. N. Umejiego et al., J Biol Chem 279, 40320-40327 (2004)].
Inhibitors at varying concentrations (25 pM-5 μM) were incubated with 10 nM C. parvum in assay buffer for 10 min at room temperature. The reaction was initiated by the addition of NAD and IMP for final concentrations of 300 μM and 150 μM, respectively. Selectivity was measured against human type II and T. foetus IMPDH at 25° C. in assay buffer. The former was assayed in the presence of 300 μM NAD 40 μM IMP and 160 nM human type II IMPDH, and the latter in the presence of 300 μM NAD 20 μM IMP and 28 nM T. foetus IMPDH. The production of NADH was monitored spectrophotometrically at 340 nm (=6.22 mM^−1 cm^−1) using a Hitachi U-2000 spectrophotometer.
IC50 values were calculated for each inhibitor according to the following equation: υi=υo/(1+[I]/IC50), using the SigmaPlot program (SPSS, Inc.).
The CpIMPDH inhibitory activity of the compounds was assessed by monitoring the production of NADH by fluorescence (FIG. 55). […]
Evaluation of Cp-IMPDH inhibitory activity for the various prepared compounds was conducted utilizing an assay measuring the conversion of IMP to XMP by monitoring the production of NADH by fluorescence emission in the presence of varying inhibitor concentrations. […]

T. gondii-CpIMPDH = T. gondii-CpIMPDH fluorescence growth assay; type: cell-based, Toxoplasma gondii

| Structure (SMILES) | mean parasite area, in words (C. parvum [1]) | EC50 (C. parvum [1]; Cryptosporidium parvum, in HCT-8 host cells) [µM] | reduction in parasite number (C. parvum [1]; very high concentrations) [%] | host cell (HCT-8) growth effect, in words (HCT-8 cells) | EC50 (C. parvum [2]) [µM] | CpIMPDH inhibition, result in words [3] | selective block of T. gondii-CpIMPDH growth, in words (T. gondii-CpIMPDH) |
| --- | --- | --- | --- | --- | --- | --- | --- |
| NC[C@@H]1O[C@H](O[C@H]2[C@@H](O)[C@H](O[C@@H]3[C@@H](O)[C@H](N)C[C@H](N)[C@H]3O[C@H]3O[C@H](CO)[C@@H](O)[C@H](O)[C@H]3N)O[C@@H]2CO)[C@H](N)[C@@H](O)[C@@H]1O [paromomycin] | significantly reduce the mean parasite area in a dose responsive manner | 97 | ~70 | negligible effects on the growth of these cells | 65 to 130 | – | – |
| O=C(Nc1ccc(Cl)cc1)C(Oc1cccc2ccccc12)c1ccccc1 (stereo not shown) [A66] | – | – | – | – | – | do not inhibit CpIMPDH in vitro | none of these compounds selectively blocked the growth |
